Results on 31 molecules are retold here after patent US20070027118A1 (priority 2005, published 2007).

Assay [1] has as its target T1, 11β-hsd-1 enzyme (Homo sapiens, UniProt P28845). Briefly: biochemical. The protocol:
The 11β-hsd-1 assay was performed in a 100 mM Triethanolamine buffer pH 8.0, containing 200 mM NaCl, 0.02% n-dodecyl β-D-maltoside, 5% glycerol, 5 mM β-mercaptoethanol. A typical reaction for the determination of Kiapp values was carried at R.T. in a Corning® u-bottom 96-well plate and is described as follows: 11β-hsd-1 enzyme (5 nM, final concentration) was pre-incubated in the presence of the inhibitor and NADPH (500 μM, final concentration) for at least 30 minutes in the assay buffer. When pre-incubation was completed, the reaction was initiated by adding the regenerating system (2 mM Glucose-6-Phosphate, 1U/mL Glucose-6-Phosphate dehydrogenase, and 6 mM MgCl2, all the concentration reported are final in the assay buffer), and 3H-cortisone (200 nM, final concentration). After 60 minutes, 60 μL of the assay mixture was transferred to a second 96-well plate and mixed with an equal volume of dimethylsulfoxide to stop the reaction. A 15 μL aliquot from the reaction mixture was loaded into a C-18 column (Polaris C18-A, 50×4.6 mm, 5 μ, 180 Angstrom from Varian) connected to an automated High-throughput Liquid Chromatography instrument developed by Cohesive Technologies Inc, of Franklin, Mass. USA, with a β-RAM model 3 Radio-HPLC detector from IN/US, of Tampa, Fla. USA. The substrate and product peaks were separated by using an isocratic mixture of 43:57 methanol to water (v/v) at a flow rate of 1.0 mL/min.
The initial reaction velocities were measured by stopping the reaction at 60 min and by measuring the area of product formation in the absence and the presence of various concentrations of inhibitors. The Kiapp values were determined using the equation for tight-binding inhibitor developed by Morrison, J. F. (Morrison J. F. Biochim BiophysActa. 1969; 185: 269-86).
The radiolabeled [1,2-3H]-cortisone is commercially available from American Radiolabeled Chemicals Inc of St. Louis, Mo. USA. NADPH, Glucose-6-Phosphate, and Glucose-6-Phosphate dehydrogenase were purchased from Sigma®.
(Morrison J. F. Biochim Biophys Acta. 1969; 185: 269-86).

Assay [2] addresses T1, 11β-hsd-1 enzyme. Description: biochemical. The conditions noted are these: for inhibition at 0.1 µM: read-out: % Inh @ 0.1 μM. The procedure:
Percentage of inhibition was determined in a 100 mM Triethanolamine buffer, pH 8.0, 200 mM NaCl, 0.02% n-dodecyl β-D-maltoside and 5 mM β-ME. A typical reaction was carried on a Corning® u-bottom 96-well plate and is described as follows: 11β-hsd-1 enzyme (5 nM, final concentration) was pre-incubated in the presence of the inhibitor and NADPH (500 μM, final concentration) for at least 30 minutes
in the assay buffer. When pre-incubation was completed, the reaction was initiated by adding the regenerating system (2 mM Glucose-6-Phosphate, 1U/mL Glucose-6-Phosphate dehydrogenase, and 6 mM MgCl2, all the concentration reported are final in the assay buffer), and 3H-cortisone (200 nM, final concentration). After 60 minutes, 60 μL of the assay mixture was transferred to a second 96-well plate and mixed with an equal volume of dimethylsulfoxide to stop the reaction. A 15 μL aliquot from the reaction mixture was loaded into a C-18 column (Polaris C18-A, 50×4.6 mm, 5 μ, 180 Angstrom from Varian) connected to an automated High-throughput Liquid Chromatography instrument developed by Cohesive Technologies Inc of Franklin, Mass., with a […] model 3 Radio-HPLC detector from IN/US of Tampa, Fla. The substrate and product peaks were separated by using an isocratic mixture of 43:57 methanol to water (v/v) at a flow rate of 1.0 mL/min.
Percent Inhibition was calculated based on the following equation: (1-(3H-Cortisol peak area in the […] of inhibitor)×100).

Where two headings read alike, the source gives them in different places. Bounds are passed on as bounds.

T1 sequence (P28845 whole entry, species assumed): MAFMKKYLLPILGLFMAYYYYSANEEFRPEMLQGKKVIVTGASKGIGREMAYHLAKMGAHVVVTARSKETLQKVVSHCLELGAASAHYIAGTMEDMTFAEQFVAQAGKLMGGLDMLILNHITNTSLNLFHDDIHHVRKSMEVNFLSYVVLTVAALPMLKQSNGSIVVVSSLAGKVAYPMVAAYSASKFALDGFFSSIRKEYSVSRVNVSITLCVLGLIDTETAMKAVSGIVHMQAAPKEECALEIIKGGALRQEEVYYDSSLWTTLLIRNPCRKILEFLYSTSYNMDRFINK

For the molecule `Cc1cccc(NS(=O)(=O)N2CCc3ccccc3CC2)n1` [Example 11], the inhibition constant (Ki) (as a rule, a dissociation constant, usually derived from enzyme kinetics or from competition with a known ligand) at 11β-hsd-1 enzyme [1] stood at 2.8 nM. In addition, the inhibition at 0.1 µM on 11β-hsd-1 enzyme [2] came out at 95.5%.

`CS(=O)(=O)c1ccc2c(c1)CCN(S(=O)(=O)Nc1ccc3ccccc3n1)CC2` [Example 12, 7-(Methylsulfonyl)-N-quinolin-2-yl-1,2,4,5-tetrahydro-3H-3-benzazepine-3-sulfonamide] came in with a Ki at 11β-hsd-1 enzyme [1] of 8.6 nM. On 11β-hsd-1 enzyme [2] (Table 1, inhibitor 0.1 μM), the inhibition at 0.1 µM amounted to 100%.

For the molecule `N#Cc1ccc(N2CCN(S(=O)(=O)Nc3ccc4ccccc4n3)CC2)nc1` [Example 13], at 11β-hsd-1 enzyme [1], the affinity corresponds to a Ki of 7.3 nM. Besides, at 11β-hsd-1 enzyme [2], the inhibition at 0.1 µM came to 94.9%.

Consider `O=S(=O)(Nc1ccc2ccccc2n1)N1CCN(c2ccc(C(F)(F)F)cn2)CC1` [Example 14], for which the inhibition constant (Ki) at 11β-hsd-1 enzyme [1] was 4.8 nM. Also, the inhibition at 0.1 µM at 11β-hsd-1 enzyme [2] was determined as 100%.

For the molecule `CCOC(=O)Cc1cccc(NS(=O)(=O)N2CCc3ccccc3CC2)n1` [Example 15, Ethyl {6-[(1,2,4,5-tetrahydro-3H-3-benzazepin-3-ylsulfonyl)amino]pyridin-2-yl}acetate], the inhibition constant (Ki) at 11β-hsd-1 enzyme [1] was found to be 2 nM. For the same molecule, the inhibition at 0.1 µM on 11β-hsd-1 enzyme [2] was determined as 100%.

At 11β-hsd-1 enzyme [1], `O=S(=O)(Nc1cccc(CCO)n1)N1CCc2ccccc2CC1` [Example 16, N-[6-(2-hydroxyethyl)pyridin-2-yl]-1,2,4,5-tetrahydro-3H-3-benzazepine-3-sulfonamide] returned an inhibition constant Ki of 2.4 nM. In addition, at 11β-hsd-1 enzyme [2], the inhibition at 0.1 µM turned out to be 100%.

Consider `CCN(CC)C(=O)Cc1cccc(NS(=O)(=O)N2CCc3ccccc3CC2)n1` [Example 17, N,N-diethyl-2-{6-[(1,2,4,5-tetrahydro-3H-3-benzazepin-3-ylsulfonyl)amino]pyridin-2-yl}acetamide], for which the affinity at 11β-hsd-1 enzyme [1] corresponds to a Ki of 5.7 nM. The inhibition at 0.1 µM at 11β-hsd-1 enzyme [2] was 100%.

As to `CCc1cccc(NS(=O)(=O)N2CCc3ccc(S(C)(=O)=O)cc3CC2)n1` [Example 18], the Ki on 11β-hsd-1 enzyme [1] was found to be 13 nM. At 11β-hsd-1 enzyme [2] (Table 1, inhibitor 0.1 μM), the inhibition at 0.1 µM was 78.2%.

On to `Cc1cc(N)nc(NS(=O)(=O)N2CCN(c3ccc(C#N)cn3)CC2)c1` [Example 20, N-(6-amino-4-methylpyridin-2-yl)-4-(5-cyanopyridin-2-yl)piperazine-1-sulfonamide], for which, at 11β-hsd-1 enzyme [1], affinity was put at a Ki of 2.5 nM. Further, at 11β-hsd-1 enzyme [2], the inhibition at 0.1 µM was 100%.

In turn, `Cc1cccc(NS(=O)(=O)N2CCCC(c3ccc(F)cc3)C2)n1` (centres unmarked) [Example 22] yielded an inhibition constant (Ki) on 11β-hsd-1 enzyme [1] of 22 nM. The inhibition at 0.1 µM at 11β-hsd-1 enzyme [2] stood at 90%.

Take `Cc1cccc(NS(=O)(=O)N2CCN(c3ccc(C#N)cn3)[C@H](C)C2)n1` [Example 23, (3R)-4-(5-cyanopyridin-2-yl)-3-methyl-N-(6-methylpyridin-2-yl)piperazine-1-sulfonamide]: affinity on 11β-hsd-1 enzyme [1] was put at a Ki of 19.8 nM. The inhibition at 0.1 µM at 11β-hsd-1 enzyme [2] turned out to be 100%.

Consider `Cc1cccc(NS(=O)(=O)N2CCC(F)(c3ccc(C#N)cc3)CC2)n1` [Example 25, 4-(4-cyanophenyl)-4-fluoro-N-(6-methylpyridin-2-yl)piper-idine-1-sulfonamide], for which the affinity at 11β-hsd-1 enzyme [1], expressed as Ki, was 63.5 nM. Further, the inhibition at 0.1 µM on 11β-hsd-1 enzyme [2] (Table 1, inhibitor 0.1 μM) came out at 50%.

On 11β-hsd-1 enzyme [1], `Cc1cccc(NS(=O)(=O)N2CC=C(c3ccc(C#N)cc3)CC2)n1` [Example 26, 4-(4-cyanophenyl)-N-(6-methylpyridin-2-yl)-3,6-dihydro-pyridine-1(2H)-sulfonamide] registered a Ki of 1.6 nM. Besides, the inhibition at 0.1 µM on 11β-hsd-1 enzyme [2] was 100%.

As to `Cc1cc(C)nc(NS(=O)(=O)N2CCN(c3ccc(C#N)cn3)[C@H](C)C2)c1` [Example 28], the affinity at 11β-hsd-1 enzyme [1] corresponds to a Ki of 0.66 nM. On 11β-hsd-1 enzyme [2], the inhibition at 0.1 µM was found to be 100%.

On to `N#Cc1ccc(N2CCN(S(=O)(=O)Nc3cccc(CO)n3)CC2)nc1` [Example 29, 4-(5-cyanopyridin-2-yl)-N-[6-(hydroxymethyl)pyridin-2-yl]piperazine-1-sulfonamide], for which the affinity at 11β-hsd-1 enzyme [1] corresponds to a Ki of 13 nM. Further, at 11β-hsd-1 enzyme [2] (Table 1, inhibitor 0.1 μM), the inhibition at 0.1 µM came out at 95%.

For `C[C@@H]1CN(S(=O)(=O)Nc2cccc(CO)n2)CCN1c1ccc(C#N)cn1` [Example 30], on 11β-hsd-1 enzyme [1], the inhibition constant (Ki) is over 1 nM. In addition, the inhibition at 0.1 µM at 11β-hsd-1 enzyme [2] is 100%.

As to `Cc1cc(N)nc(NS(=O)(=O)N2CCN(c3ncc(F)cn3)CC2)c1` [Example 31, N-(6-amino-4-methylpyridin-2-yl)-4-(5-fluoropyrimidin-2-yl)piperazine-1-sulfonamide], on 11β-hsd-1 enzyme [1], the inhibition constant Ki was 11 nM. The inhibition at 0.1 µM on 11β-hsd-1 enzyme [2] came to 100%.

In the case of `CC(C)c1cccc(NS(=O)(=O)N2CCN(c3ccc(C#N)cn3)CC2)n1` [Example 32, 4-(5-cyanopyridin-2-yl)-N-(6-isopropylpyridin-2-yl)piper-azine-1-sulfonamide], the affinity on 11β-hsd-1 enzyme [1], expressed as Ki, was 2.4 nM. Moreover, the inhibition at 0.1 µM at 11β-hsd-1 enzyme [2] was determined as 97%.

With `Cc1cccc(NS(=O)(=O)N2CCC(c3ccc(C#N)cn3)CC2)n1` [Example 33, 4-(5-cyanopyridin-2-yl)-N-(6-methylpyridin-2-yl)piperidine-1-sulfonamide], on 11β-hsd-1 enzyme [1], the affinity corresponds to a Ki of 50 nM. Also, on 11β-hsd-1 enzyme [2], the inhibition at 0.1 µM was 100%.

In turn, `CC(C)c1cccc(NS(=O)(=O)N2CCC(c3ccc(C#N)cn3)CC2)n1` [Example 34] gave a Ki on 11β-hsd-1 enzyme [1] of 26 nM. The inhibition at 0.1 µM on 11β-hsd-1 enzyme [2] worked out at 100%.

As for `O=S(=O)(Nc1ccc2ncccc2n1)N1CCN(c2ccc(C(F)(F)F)cn2)CC1` [Example 35, N-1,5-naphthyridin-2-yl-4-[5-(trifluoromethyl)pyridin-2-yl]piperazine-1-sulfonamide], at 11β-hsd-1 enzyme [1], the Ki is 10 nM. At 11β-hsd-1 enzyme [2], the inhibition at 0.1 µM is 100%.

On 11β-hsd-1 enzyme [1], `Cc1cc(Cl)cnc1N1CCN(S(=O)(=O)Nc2ccc3ncccc3n2)CC1` [Example 37, 4-(5-chloro-3-methylpyridin-2-yl)-N-1,5-naphthyridin-2-ylpiperazine-1-sulfonamide] came in with an inhibition constant Ki of 100 nM. Besides, the inhibition at 0.1 µM at 11β-hsd-1 enzyme [2] was 80%.

In turn, `N#Cc1ccc(C2CCN(S(=O)(=O)Nc3ccc4ccccc4n3)CC2)nc1` [Example 38] gave a Ki on 11β-hsd-1 enzyme [1] of 31 nM. In addition, the inhibition at 0.1 µM on 11β-hsd-1 enzyme [2] was found to be 100%.

In turn, `N#Cc1ccc(C2CCN(S(=O)(=O)Nc3cccc(N)n3)CC2)nc1` [Example 39] registered a Ki at 11β-hsd-1 enzyme [1] of 16 nM. Moreover, the inhibition at 0.1 µM on 11β-hsd-1 enzyme [2] came to 91%.

Regarding `CCc1cccc(NS(=O)(=O)N2CCCN(c3ccc(C#N)cn3)CC2)n1` [Example 42], the Ki on 11β-hsd-1 enzyme [1] turned out to be 17 nM. In addition, at 11β-hsd-1 enzyme [2], the inhibition at 0.1 µM came out at 89%.

`CCc1cccc(NS(=O)(=O)N2CCCN(c3ccc(C(F)(F)F)cn3)CC2)n1` [Example 43] displayed a Ki at 11β-hsd-1 enzyme [1] of 12 nM. Moreover, on 11β-hsd-1 enzyme [2], the inhibition at 0.1 µM was found to be 93%.

The molecule `Cc1cccc(NS(=O)(=O)N2CCCN(c3ccc(C#N)cn3)CC2)n1` [Example 44] displayed a Ki at 11β-hsd-1 enzyme [1] of 34 nM. For the same molecule, on 11β-hsd-1 enzyme [2], the inhibition at 0.1 µM was 72%.

Take `N#Cc1ccc(N2CCCN(S(=O)(=O)Nc3ccc4ccccc4n3)CC2)nc1` [Example 45]: on 11β-hsd-1 enzyme [1], the Ki was determined as 53 nM. Further, the inhibition at 0.1 µM at 11β-hsd-1 enzyme [2] is 73%.

For the molecule `Cc1ccc(C)n1-c1cccc(NS(=O)(=O)N2CCC(c3ccc(F)cc3)CC2)n1` [Example 57, N-[6-(2,5-dimethyl-1H-pyrrol-1-yl)pyridin-2-yl]-4-(4-fluorophenyl)piperidine-1-sulfonamide], affinity on 11β-hsd-1 enzyme [1] was put at a Ki of 56 nM. Also, on 11β-hsd-1 enzyme [2] (Table 1, inhibitor 0.1 μM), the inhibition at 0.1 µM is 85%.

At 11β-hsd-1 enzyme [1], `CCc1cccc(NS(=O)(=O)N2CCC(c3ccc(F)cc3)CC2)n1` [Example 68] showed a Ki of 5.4 nM. On 11β-hsd-1 enzyme [2], the inhibition at 0.1 µM came to 96.6%.

Molecule `CCc1cccc(NS(=O)(=O)N2CCCC(c3ccnc(N4CCOCC4)n3)C2)n1` (centres unmarked) [Example 71, N-(6-ethylpyridin-2-yl)-3-(2-morpholin-4-ylpyrimidin-4-yl)pipendine-1-sulfonamide] displayed an inhibitory constant (Ki) on 11β-hsd-1 enzyme [1] of 23 nM. Further, the inhibition at 11β-hsd-1 enzyme [2] (read-out: % Inh @ 0.1 mM) stood at 92.7%.
